Structures can show the parent of a compound that is named as a salt.
Conditions: pH 8.3

stability of substrate: very stable
Compound: CC(C)C[C@H](NC(=O)[C@@H](NC(=O)OC(C)(C)C)C(C)C)C(=O)N[C@@H](CCCCN)C(=O)Nc1ccc2c(=O)[nH][nH]c(=O)c2c1 [XXI, Boc--Val--Leu--Lys--Isl.HCl]
